According to the NIST ThermoML archive (doi:10.1016/j.jct.2010.04.020):
Numbers after ± are expanded uncertainties.

Columns and labels:
[1] = for mass density: 101.33 kPa, Liquid, Vibrating tube method; for Triple point temperature: Crystal
[2] = Molar enthalpy of transition or fusion; conditions: Crystal; DSC

CCCC[n+]1cccc2ccccc21.O=S(=O)([N-]S(=O)(=O)C(F)(F)F)C(F)(F)F [1-butylquinolinium bis((trifluoromethyl)sulfonyl)amide]
[1]
Conditions	Triple point temperature [K]	mass density [kg/m3]
333.15 K	–	1416.26 ± 6.9
343.15 K	–	1407.38 ± 6.8
353.15 K	–	1398.52 ± 6.8
363.15 K	–	1389.69 ± 6.7
DTA	329.12 ± 0.5	–
visual observation	329.62 ± 1.1	–

Conditions	Molar enthalpy of transition or fusion [kcal/mol]
[2]	10.5 ± 0.287
